Measurements reported in US11339171B2, “MDM2 inhibitors” (Gan & Lee Pharmaceuticals, priority 2017, dated 2022).

Experiments:
[1] = tested on: human osteosarcoma cell line SJSA-1; assay: Inhibition of proliferation of human osteosarcoma cell line SJSA-1 (DAPI staining, In Cell Analyzer); conditions: Homo sapiens, SJSA-1, 72 h, read-out: IC50 (nM), inhibitory activity on proliferation of human osteosarcoma cell line SJSA-1, SJSA-1, incubated 72 h
[2] = target: T1, MDM2 (Homo sapiens, UniProt Q00987); assay: Inhibition test of MDM2-P53 (GST-MDM2, Biotin-P53, Anti-GST-Tb, SA-XL665); type: binding
T1 construct: made in house
Method in brief: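 HTRF-type assay using 4 nM GST-MDM2 (final), Biotin-P53, SA-XL665 and anti-GST-Tb in PBS with 0.1% BSA, 5 mM DTT and 1 mM AEBSF. Compounds in 5-fold serial dilutions over twelve points; incubation 90 min at 25° C with shaking before plate-reader read-out.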

T1 sequence (Q00987 whole entry): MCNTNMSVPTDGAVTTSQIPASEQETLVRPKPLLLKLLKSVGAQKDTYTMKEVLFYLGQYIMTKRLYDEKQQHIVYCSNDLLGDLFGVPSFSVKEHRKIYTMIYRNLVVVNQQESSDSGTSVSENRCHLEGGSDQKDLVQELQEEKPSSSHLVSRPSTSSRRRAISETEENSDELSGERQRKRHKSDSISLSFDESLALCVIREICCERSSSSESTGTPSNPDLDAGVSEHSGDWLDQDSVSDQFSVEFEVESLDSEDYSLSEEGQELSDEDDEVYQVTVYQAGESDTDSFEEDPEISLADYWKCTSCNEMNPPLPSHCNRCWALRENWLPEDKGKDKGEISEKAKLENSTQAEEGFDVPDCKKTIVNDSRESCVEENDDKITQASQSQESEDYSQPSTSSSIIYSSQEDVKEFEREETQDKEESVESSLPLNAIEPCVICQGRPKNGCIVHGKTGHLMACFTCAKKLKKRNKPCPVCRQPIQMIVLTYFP

Compound	IC50 [1]	IC50 [2]
COc1cc(C#N)ccc1-c1nc2c(n1C(C)C)[C@@]1(C(=O)Nc3cc(Cl)ccc31)N(c1cccc(Cl)c1)C2=O [Example S-128, (S)-4-(6-chloro-5′-(3-chlorophenyl)-3′-isopropyl-2,6′-dioxo-5′,6′-dihydro-3′H-spiro[dihydroindole-3,4′-pyrrolo[3,4-d]imidazole]-2′-yl)-3-methoxybenzonitrile]	145 nM	1.09 nM
COc1cc(C(F)(F)F)ccc1-c1nc2c(n1C(C)C)[C@@]1(C(=O)Nc3cc(Cl)ccc31)N(c1cccc(Cl)c1)C2=O [Example S-129, (S)-6-chloro-5′-(3-chlorophenyl)-3′-isopropyl-2′-(2-methoxy-4-(trifluoromethyl)phenyl)-3′H-spiro[dihydroindole-3,4′-pyrrolo[3,4-d]imidazole]-2,6′(5′H)-dione]	146 nM	3.84 nM
COc1nc(OC(C)C)ncc1-c1nc2c(n1C(C)C)[C@@]1(C(=O)Nc3cc(Cl)ccc31)N(c1cc(Cl)cnc1C)C2=O [Example S-136, (S)-6-chloro-5′-(5-chloro-2-methylpyridin-3-yl)-2′-(2-isopropoxy-4-methoxypyrimidin-5-yl)-3′-isopropyl-3′H-spiro[dihydroindole-3,4′-pyrrolo[3,4-d]imidazole]-2,6′(5′H)-dione]	108 nM	2.35 nM
CCOc1cc(OC)c(-c2nc3c(n2C(C)C)[C@@]2(C(=O)Nc4cc(Cl)ccc42)N(c2cc(F)cc(Cl)c2)C3=O)cn1 [Example S-139, (S)-6-chloro-5′-(3-chloro-5-fluorophenyl)-2′-(6-ethoxy-4-methoxypyridin-3-yl)-3′-isopropyl-3′H-spiro[dihydroindole-3,4′-pyrrolo[3,4-d]imidazole]-2,6′(5′H)-dione]	50.7 nM	1.36 nM
COc1nc(OCC(F)(F)F)ncc1-c1nc2c(n1C(C)C)[C@@]1(C(=O)Nc3cc(Cl)ccc31)N(c1cc(Cl)ccc1C)C2=O [Example S-141, (S)-6-chloro-5′-(5-chloro-2-methylphenyl)-3′-isopropyl-2′-(4-methoxy-2-(2,2,2-trifluoroethoxy)pyrimidin-5-yl)-3′H-spiro[dihydroindole-3,4′-pyrrolo[3,4-d]imidazole]-2,6′(5′H)-dione]	73.6 nM	3.42 nM
COc1cc(C(F)(F)F)ncc1-c1nc2c(n1C(C)C)[C@@]1(C(=O)Nc3cc(Cl)ccc31)N(c1cccc(Cl)c1)C2=O [Example S-142, (S)-6-chloro-5′-(3-chlorophenyl)-3′-isopropyl-2′-(4-methoxy-6-(trifluoromethyl)pyridin-3-yl)-3′H-spiro[dihydroindole-3,4′-pyrrolo[3,4-d]imidazole]-2,6′(5′H)-dione]	138 nM	1.45 nM
COc1cc(C2CC2)ncc1-c1nc2c(n1C(C)C)[C@@]1(C(=O)Nc3cc(Cl)ccc31)N(c1cc(Cl)cnc1C)C2=O [Example S-143, (S)-6-chloro-5′-(5-chloro-2-methylpyridin-3-yl)-2′-(6-cyclopropyl-4-methoxypyridin-3-yl)-3′-isopropyl-3′H-spiro[dihydroindole-3,4′-pyrrolo[3,4-d]imidazole]-2,6′(5′H)-dione]	24.9 nM	1.1 nM
COc1cc(C(F)(F)F)ccc1-c1nc2c(n1C(C)C)[C@@]1(C(=O)Nc3cc(Cl)ccc31)N(c1cc(Cl)cnc1C)C2=O [Example S-144, (S)-6-chloro-5′-(5-chloro-2-methylpyridin-3-yl)-3′-isopropyl-2′-(2-methoxy-4-(trifluoromethyl)phenyl)-3′H-spiro[dihydroindole-3,4′-pyrrolo[3,4-d]imidazole]-2,6′(5′H)-dione]	101 nM	3.84 nM
COc1cc(C2CC2)ccc1-c1nc2c(n1C(C)C)[C@@]1(C(=O)Nc3cc(Cl)ccc31)N(c1cc(Cl)cnc1C)C2=O [Example S-145, (S)-6-chloro-5′-(5-chloro-2-methylpyridin-3-yl)-2′-(4-cyclopropyl-2-methoxyphenyl)-3′-isopropyl-3′H-spiro[dihydroindole-3,4′-pyrrolo[3,4-d]imidazole]-2,6′(5′H)-dione]	28.2 nM	2.05 nM
CCOc1ccc(-c2nc3c(n2C(C)C)[C@@]2(C(=O)Nc4cc(Cl)ccc42)N(c2cc(Cl)ccc2C)C3=O)c(OC)n1 [Example S-146, (S)-6-chloro-5′-(5-chloro-2-methylphenyl)-2′-(6-ethoxy-2-methoxypyridin-3-yl)-3′-isopropyl-3′H-spiro[dihydroindole-3,4′-pyrrolo[3,4-d]imidazole]-2,6′(5′H)-dione]	67.8 nM	5.44 nM
COc1nc(OCC(F)F)ncc1-c1nc2c(n1C(C)C)[C@@]1(C(=O)Nc3cc(Cl)ccc31)N(c1cc(Cl)ccc1C)C2=O [Example S-147, (S)-6-chloro-5′-(5-chloro-2-methylphenyl)-2′-(2-(2,2-difluoroethoxy)-4-methoxypyrimidin-5-yl)-3′-isopropyl-3′H-spiro[dihydroindole-3,4′-pyrrolo[3,4-d]imidazole]-2,6′(5′H)-dione]	271 nM	5.89 nM
COc1cc(OCCO)ccc1-c1nc2c(n1C(C)C)[C@@]1(C(=O)Nc3cc(Cl)ccc31)N(c1cc(Cl)ccc1C)C2=O [Example S-148, (S)-6-chloro-5′-(5-chloro-2-methylphenyl)-2′-(4-(2-hydroxyethoxy)-2-methoxyphenyl)-3′-isopropyl-3′H-spiro[dihydroindole-3,4′-pyrrolo[3,4-d]imidazole]-2,6′(5′H)-dione]	71.8 nM	1.58 nM
COc1nc(C(C)C)ccc1-c1nc2c(n1C(C)C)[C@@]1(C(=O)Nc3cc(Cl)ccc31)N(c1cc(Cl)ccc1C)C2=O [Example S-149, (S)-6-chloro-5′-(5-chloro-2-methylphenyl)-3′-isopropyl-2′-(6-isopropyl-2-methoxypyridin-3-yl)-3′H-spiro[dihydroindole-3,4′-pyrrolo[3,4-d]imidazole]-2,6′(5′H)-dione]	153 nM	18.5 nM
COc1cc(OC(F)F)ncc1-c1nc2c(n1C(C)C)[C@@]1(C(=O)Nc3cc(Cl)ccc31)N(c1cc(Cl)ccc1C)C2=O [Example S-150, (S)-6-chloro-5′-(5-chloro-2-methylphenyl)-2′-(6-(difluoromethoxy)-4-methoxypyridin-3-yl)-3′-isopropyl-3′H-spiro[dihydroindole-3,4′-pyrrolo[3,4-d]imidazole]-2,6′(5′H)-dione]	80.5 nM	1.93 nM
COc1cc(C(F)(F)F)ncc1-c1nc2c(n1C(C)C)[C@@]1(C(=O)Nc3cc(Cl)ccc31)N(c1cc(Cl)cnc1C)C2=O [Example S-152, (S)-6-chloro-5′-(5-chloro-2-methylpyridin-3-yl)-3′-isopropyl-2′-(4-methoxy-6-(trifluoromethyl)pyridine-3-yl)-3′H-spiro[dihydroindole-3,4′-pyrrolo[3,4-d]imidazole]-2,6′(5′H)-dione]	79.8 nM	0.78 nM
COc1cc(OCC(F)F)ncc1-c1nc2c(n1C(C)C)[C@@]1(C(=O)Nc3cc(Cl)ccc31)N(c1cc(Cl)ccc1C)C2=O [Example S-153, (S)-6-chloro-5′-(5-chloro-2-methylphenyl)-2′-(6-(2,2-difluoroethoxy)-4-methoxypyridin-3-yl)-3′-isopropyl-3′H-spiro[dihydroindole-3,4′-pyrrolo[3,4-d]imidazole]-2,6′(5′H)-dione]	22 nM	0.49 nM
COc1cc(C)ncc1-c1nc2c(n1C(C)C)[C@@]1(C(=O)Nc3cc(Cl)ccc31)N(c1cc(Cl)ccc1C)C2=O [Example S-154, (S)-6-chloro-5′-(5-chloro-2-methylphenyl)-3′-isopropyl-2′-(4-methoxy-6-methylpyridin-3-yl)-3′H-spiro[dihydroindole-3,4′-pyrrolo[3,4-d]imidazole]-2,6′(5′H)-dione]	22 nM	0.9 nM
COc1cc(N(C)C)ncc1-c1nc2c(n1C(C)C)[C@@]1(C(=O)Nc3cc(Cl)ccc31)N(c1cc(Cl)cnc1C)C2=O [Example S-155, (S)-6-chloro-5′-(5-chloro-2-methylpyridin-3-yl)-2′-(6-(dimethylamino)-4-methoxypyridin-3-yl)-3′-isopropyl-3′H-spiro[dihydroindole-3,4′-pyrrolo[3,4-d]imidazole]-2,6′(5′H)-dione]	14.6 nM	0.95 nM
COc1nc(N(C)C)ccc1-c1nc2c(n1C(C)C)[C@@]1(C(=O)Nc3cc(Cl)ccc31)N(c1cc(Cl)ccc1C)C2=O [Example S-157, (S)-6-chloro-5′-(5-chloro-2-methylphenyl)-2′-(6-(dimethylamino)-2-methoxypyridin-3-yl)-3′-isopropyl-3′H-spiro[dihydroindole-3,4′-pyrrolo[3,4-d]imidazole]-2,6′(5′H)-dione]	16.7 nM	3.81 nM
COc1ncc(-c2nc3c(n2C(C)C)[C@@]2(C(=O)Nc4cc(Cl)ccc42)N(c2ccc(C#N)c(Cl)c2)C3=O)c(OC)n1 [Example S-158, (S)-2-chloro-4-(6-chloro-2′-(2,4-dimethoxypyrimidin-5-yl)-3′-isopropyl-2,6′-dioxo-3′,6′-dihydro-5′H-spiro[dihydroindole-3,4′-pyrrolo[3,4-d]imidazole]-5′-yl)benzonitrile]	550 nM	4.07 nM
COc1ncc(-c2nc3c(n2C(C)C)[C@@]2(C(=O)Nc4cc(Cl)ccc42)N(c2ccc(OC(F)(F)F)c(Cl)c2)C3=O)c(OC)n1 [Example S-161, (S)-6-chloro-5′-(3-chloro-4-(trifluoromethoxy)phenyl)-2′-(2,4-dimethoxypyrimidin-5-yl)-3′-isopropyl-3′H-spiro[dihydroindole-3,4′-pyrrolo[3,4-d]imidazole]-2,6′(5′H)-dione]	557 nM	8.09 nM
